This is an account of results in patent US8633238B2, “Lactams and uses thereof” (Joben Bio-Medical Co., Ltd., priority 2012, dated 2014).

Common to all, as to assay type: cell-based, human
Details in all cases: 50 μM, 24 h

Assay [1] has as its system MCF-7 cells. In words: MTT antiproliferation assay, MCF-7 cells. The procedure:
(§1) Cell Lines and Culture. MCF-7, T-47D, and H184B5F5/M10 cells were cultured with 5% CO2 atmosphere at 37° C.; MDA-MB-231 cells were cultured without CO2 at 37° C. The MCF-7 cells were cultured in MEM containing 10% heat-inactivated FBS, 100 units/mL penicillin, 100 μg/mL streptomycin, and 1 mM sodium pyruvate. The T-47D cells were maintained in RPMI-1640 medium containing 10% heat inactivated FBS, 100 units/mL penicillin, and 100 μg/mL streptomycin. […]
(§2) Assay for Antiproliferation. To determine the antiproliferative effect, MCF-7, T-47D, MDA-MB-231, or H184B5F5/M10 cells were assessed using the MTT assay as previously reported (Ho, C. Y.; Kim, C, F.; Leung, K. N.; Fung, K. P.; Tse, T. F.; Chan, H.; Lau, C. B. Differential anti-tumor activity of Coriolus versicolor (Yunzhi) extract through p53- and/or Bcl-2-dependent apoptotic pathway in human breast cancer cells. Cancer Biol. Ther. 2005, 4, e11-e17). […] The absorbance at 570 nm was measured, and the viability of cells was calculated using the following equation: relative cell number (%)=(average absorbance of treated wells)×100/(average absorbance of blank vehicle wells).
A general note: Formazan colour is commonly taken as a measure of viable cells.

In assay [2] the test system is MDA-MB-231 cells. In words: MTT antiproliferation assay, MDA-MB-231 cells. The procedure: as §1, §2
Assay [3] relates to T-47D cells. Kind of assay: MTT antiproliferation assay, T-47D cells. The procedure:
as §1, §2

For coixspirolactam D [compound 1], the results for the percentage of inhibition in assay [1] and in assay [2] were 30.2% and 47.4%, respectively.
For coixspirolactam E [compound 2], the percentage of inhibition in assay [3] was 20.7%; in assay [2] it was 25.3%.
